Assay results reported in paper PMC11721541 (Journal of Lipid Research, 2024).
pIC50: −log10 of the molar value.

Key:
human lipin 1α = target: T1, human lipin 1α (Homo sapiens, UniProt Q14693); assay: PAP assay, human lipin 1α; format: biochemical; conditions: for pIC50: unphosphorylated, from E. coli, PA 2.4 mol %
T1 construct: His6 (C); made in house; host or cells: E. coli Rosetta2(DE3)pLysS, plasmid pGH322 (pET-28b(+) derivative)
T1 sequence (Q14693 1-890): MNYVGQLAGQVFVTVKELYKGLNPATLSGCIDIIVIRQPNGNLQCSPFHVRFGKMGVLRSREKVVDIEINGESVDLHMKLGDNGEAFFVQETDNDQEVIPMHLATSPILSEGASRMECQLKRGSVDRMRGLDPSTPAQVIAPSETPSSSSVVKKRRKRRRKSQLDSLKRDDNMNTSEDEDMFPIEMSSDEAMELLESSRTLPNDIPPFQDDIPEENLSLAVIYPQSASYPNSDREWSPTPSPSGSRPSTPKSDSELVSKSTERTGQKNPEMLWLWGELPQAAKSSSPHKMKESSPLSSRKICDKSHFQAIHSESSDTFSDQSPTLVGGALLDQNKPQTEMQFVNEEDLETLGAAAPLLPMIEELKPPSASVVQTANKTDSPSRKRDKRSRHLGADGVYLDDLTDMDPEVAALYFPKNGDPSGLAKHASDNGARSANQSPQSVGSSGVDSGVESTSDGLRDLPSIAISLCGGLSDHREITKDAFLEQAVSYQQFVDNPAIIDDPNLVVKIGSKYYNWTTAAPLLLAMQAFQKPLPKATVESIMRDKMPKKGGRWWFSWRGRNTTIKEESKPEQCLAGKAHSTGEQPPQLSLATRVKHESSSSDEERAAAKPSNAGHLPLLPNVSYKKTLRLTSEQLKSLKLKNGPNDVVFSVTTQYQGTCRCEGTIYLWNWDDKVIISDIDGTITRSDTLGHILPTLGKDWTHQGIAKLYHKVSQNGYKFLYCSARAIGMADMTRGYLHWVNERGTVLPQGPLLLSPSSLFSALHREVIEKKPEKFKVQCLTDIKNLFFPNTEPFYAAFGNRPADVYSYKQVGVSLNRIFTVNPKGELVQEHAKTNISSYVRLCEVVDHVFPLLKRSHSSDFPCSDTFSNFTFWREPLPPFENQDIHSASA
Method: (§1) PA dissolved in chloroform was dried in vacuo for 1 h. The dried PA was suspended in Triton X-100 to prepare Triton X-100/PA-mixed micelles ([88]). The mole percent of PA in the Triton X-100/PA-mixed micelle was calculated using the following formula: mol %PA = 100 × [PA (molar)]/([PA (molar)] + [Triton X-100 (molar)]). The total PA concentration in the Triton X-100/PA-mixed micelles was kept below 15 mol% to ensure that the structure of the PA-mixed micelles was similar to that of pure Triton X-100 micelles ([89], [90]).
(§2) PAP activity was measured at 30°C for 20 min by following the release of water-soluble ^32Pi from chloroform-soluble [^32P]PA (5,000–10,000 cpm/nmol) ([1], [88]). [^32P]PA was enzymatically synthesized from 1, 2-dioleoyl DAG and [γ-^32P]ATP with E. coli DAG kinase ([88]). Pah1-CC PAP activity was measured by following the formation of Pi from unlabeled PA using the malachite green-molybdate reagent ([4], [91]). The reaction mixture in a total volume of 100 μl contained 50 mM Tris-HCl (pH 7.5), 1 mM MgCl2, 10 mM 2-mercaptoethanol, 0.2 mM PA, 2 mM Triton X-100, and 50 ng purified enzyme. The enzyme assays were conducted in triplicate; the reactions were linear with time and protein concentration.
(§3) Each of the isoforms was heterologously expressed in E. coli, which allowed for their isolation in the unphosphorylated state ([4]).

human lipin 1γ = target: T2, human lipin 1γ (Homo sapiens, UniProt Q14693); assay: PAP assay, human lipin 1γ; format: biochemical; conditions: unphosphorylated, from E. coli; PA 2.4 mol %
T2 construct: His6 (C); made in house; host or cells: E. coli Rosetta2(DE3)pLysS, plasmid pGH321 (pET-28b(+) derivative)
T2 sequence (Q14693 1-916 isoform Q14693-4): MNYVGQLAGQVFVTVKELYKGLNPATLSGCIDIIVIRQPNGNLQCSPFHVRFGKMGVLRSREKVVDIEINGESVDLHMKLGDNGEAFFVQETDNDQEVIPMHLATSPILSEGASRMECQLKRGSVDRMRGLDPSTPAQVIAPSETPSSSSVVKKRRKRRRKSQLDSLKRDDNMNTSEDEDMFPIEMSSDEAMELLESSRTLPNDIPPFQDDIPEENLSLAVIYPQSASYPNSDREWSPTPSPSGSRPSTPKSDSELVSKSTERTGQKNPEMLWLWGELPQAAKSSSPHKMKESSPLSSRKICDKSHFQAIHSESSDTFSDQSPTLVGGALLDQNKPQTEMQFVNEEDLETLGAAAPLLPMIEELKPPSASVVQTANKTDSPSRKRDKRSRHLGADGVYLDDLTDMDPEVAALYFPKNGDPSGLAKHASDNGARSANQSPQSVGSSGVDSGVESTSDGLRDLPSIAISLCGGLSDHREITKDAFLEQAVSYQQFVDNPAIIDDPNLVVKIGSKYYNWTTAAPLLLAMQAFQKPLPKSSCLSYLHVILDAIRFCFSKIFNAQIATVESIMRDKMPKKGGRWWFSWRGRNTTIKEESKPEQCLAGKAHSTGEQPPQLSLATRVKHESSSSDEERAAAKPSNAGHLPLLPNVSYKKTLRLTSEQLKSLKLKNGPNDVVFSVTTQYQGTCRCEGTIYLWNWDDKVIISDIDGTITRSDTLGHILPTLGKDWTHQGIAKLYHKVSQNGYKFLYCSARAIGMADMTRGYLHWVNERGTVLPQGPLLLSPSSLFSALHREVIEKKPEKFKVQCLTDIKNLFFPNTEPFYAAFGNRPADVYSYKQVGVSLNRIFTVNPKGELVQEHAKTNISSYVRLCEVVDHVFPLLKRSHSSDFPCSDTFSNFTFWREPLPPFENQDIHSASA
Method: as §1, §2, §3

human lipin 1β = target: T3, human lipin 1β (Homo sapiens, UniProt Q14693); assay: PAP assay, human lipin 1β; format: biochemical; conditions: unphosphorylated, from E. coli; PA 2.4 mol %
T3 construct: His6 (C); made in house; host or cells: E. coli Rosetta2(DE3)pLysS, plasmid pGH327 (pET-28b(+) derivative)
T3 sequence (Q14693 1-926 isoform Q14693-3): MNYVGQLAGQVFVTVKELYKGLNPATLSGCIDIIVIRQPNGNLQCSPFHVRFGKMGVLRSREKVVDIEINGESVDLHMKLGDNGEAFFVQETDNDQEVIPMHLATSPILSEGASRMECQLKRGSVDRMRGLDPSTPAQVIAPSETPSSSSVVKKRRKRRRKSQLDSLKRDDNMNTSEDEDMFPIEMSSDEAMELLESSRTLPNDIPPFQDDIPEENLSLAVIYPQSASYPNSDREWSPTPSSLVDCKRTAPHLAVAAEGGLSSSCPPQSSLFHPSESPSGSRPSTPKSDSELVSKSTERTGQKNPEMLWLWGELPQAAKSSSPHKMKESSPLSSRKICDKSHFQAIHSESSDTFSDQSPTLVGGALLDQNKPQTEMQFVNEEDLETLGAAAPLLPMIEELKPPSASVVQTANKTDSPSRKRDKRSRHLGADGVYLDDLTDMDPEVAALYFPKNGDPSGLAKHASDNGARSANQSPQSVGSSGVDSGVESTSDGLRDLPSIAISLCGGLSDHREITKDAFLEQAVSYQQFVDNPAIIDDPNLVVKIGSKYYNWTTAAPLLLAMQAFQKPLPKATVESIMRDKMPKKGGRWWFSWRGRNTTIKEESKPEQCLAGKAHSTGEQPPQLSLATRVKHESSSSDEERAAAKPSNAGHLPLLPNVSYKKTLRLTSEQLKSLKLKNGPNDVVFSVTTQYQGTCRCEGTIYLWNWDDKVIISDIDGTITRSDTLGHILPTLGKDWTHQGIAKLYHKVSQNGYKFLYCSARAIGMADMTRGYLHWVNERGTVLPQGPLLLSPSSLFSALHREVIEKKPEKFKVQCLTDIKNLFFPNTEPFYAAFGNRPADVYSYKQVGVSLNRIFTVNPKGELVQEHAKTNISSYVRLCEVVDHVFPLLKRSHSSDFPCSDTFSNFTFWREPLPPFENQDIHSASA
Method: as §1, §2, §3

[1] = test system: pah1Δ cells (SS1026) overexpressing Pah1 or Pah1-CC; format: cell-based, Saccharomyces cerevisiae
Method: (§4) The cell density was determined by measurement of A600 nm after a 48-h static incubation using a SpectraMax M2e microplate reader (Molecular Devices). […] The A600 nm readings were taken after 4 days of incubation.

HepG2 cells = assay: Lipid analysis (TLC, charring) in HepG2 cells; format: cell-based, human; conditions: 10 μM, 18 h
pah1Δ mutant cells = format: cell-based, Saccharomyces cerevisiae
Method: as §4
For this experiment, we cultured the mutant in SC-0.2% glucose medium because of its growth defect in RPMI-0.2% glucose.
We reasoned that an overexpressed level of PAP activity would more readily rescue the inhibitory effect of the drug on the mutant growth.

[2] = test system: WT S. cerevisiae cells (RS453); assay: Lipid analysis ([2-14C]acetate labeling, TLC) in S. cerevisiae; conditions: 163 μM, 12 h, SC-0.2% glucose
Source text: Lipids were extracted ([97]) from ∼ 8 × 10^7 cells and analyzed by one-dimensional TLC with silica gel 60 plates using the solvent system containing hexane/diethyl ether/glacial acetic acid (40:10:1, v/v) ([98]). Radiolabeled lipids were visualized by phosphorimaging with a Storm 860 Molecular Imager (GE Healthcare) and quantified with ImageQuant software using a standard curve of [2–^14C]acetate. The amounts of TAG and phospholipids were normalized to total lipids on TLC plates.
The radiolabeling was performed in the SC medium owing to the difficulty of [2–^14C]acetate incorporation into cells grown in the RPMI medium.

Compound	pIC50 (human lipin 1α)	pIC50 (human lipin 1γ)	pIC50 (human lipin 1β)	IC50 values for lipin 1 isoforms lower than those of propranolol (human lipin 1α; lipin 1 α, β and γ isoforms together)	effect on growth of cells expressing Pah1 [1]	reduction in the TAG level (HepG2 cells)	growth of cells during the incubation period (HepG2 cells; vs DMSO vehicle)	effect on growth of pah1Δ mutant (pah1Δ mutant cells)	decrease of TAG content [2]	increase of phospholipid content [2]
CC(C)NCC(O)COc1cccc2ccccc12 (stereo not shown) [propranolol]	3.65	3.64	3.57	–	–	–	–	–	–	–
CN[C@H]1CC[C@@H](c2ccc(Cl)c(Cl)c2)c2ccccc21 [sertraline]	3.99	3.84	3.97	~2 fold	mild inhibition	2 fold	did not differ from that of the control	severe reduction in growth	2.2 fold	1.2 fold
